Series [1] concerns Rattus norvegicus. As to the kind of experiment: Anxiolytic activity in po dosed rat assessed as protection against pentylenetetrazole-induced seizures administered in 2% starch. The series is classed as functional.
The species entered for another series is Mus musculus. As to the kind of experiment: Anxiolytic activity in mouse assessed as suppression of pentylenetetrazole-induced convulsion. Type of series: functional, organism-based.
The species entered for series [2] is Rattus norvegicus. In words: Anxiolytic activity in thirsty rat by increased conflict responding test. The series is classed as functional, organism-based.
The next series deals with Squirrel monkey. As to the kind of experiment: Anxiolytic activity in squirrel monkey by conflict responding test. Particulars: Saimiri sciureus. Type of series: functional, organism-based.
For another series, the species on record is Canis familiaris. As to the kind of experiment: Anxiolytic activity in dog assessed as suppression of pentylenetetrazole-induced convulsion. The series is classed as functional, organism-based. The note with it: Canis lupus familiaris.
For another series, the species on record is Homo sapiens. In words: Anxiolytic activity in human. The series is classed as functional, organism-based.
Series [3] is filed under the species Rattus norvegicus. As to the kind of experiment: Toxicity in rat assessed as depression. Type of series: organism-based. The note with it: in vivo.
Series [4] is filed under the species Rattus norvegicus. In words: Drug metabolism in rat treated with 10-methyl-2,3-dihydro-1H-benzo[e]pyrrolo[1,2-a][1,4]diazepine-5,11(10H,11aH)-dione. Type of series: ADME, organism-based. The note with it: in vivo.
The species named for series [5] is Rattus norvegicus. As to the kind of experiment: Drug metabolism in rat assessed as monohydroxylated product formation. Type of series: ADME, organism-based. Particulars: in vivo.
The species named for series [6] is Rattus norvegicus. As to the kind of experiment: Drug metabolism in rat assessed as aliphatic hydroxylated product formation. The series is classed as ADME, organism-based. Particulars: in vivo.
The species named for series [7] is Rattus norvegicus. In words: Drug metabolism in rat assessed as dihydroxylated product formation. The series is classed as ADME, organism-based. Particulars: in vivo.
The species entered for series [8] is Rattus norvegicus. As to the kind of experiment: Drug metabolism in rat assessed as 3,11a-dihydroxy-10-methyl-2,3-dihydro-1H-benzo[e]pyrrolo[1,2-a][1,4]diazepine-5,11(10H,11aH)-dione formation by GC-MS/NMR analysis. The note with it: in vivo. Type of series: ADME, organism-based.
Series [9] is filed under the species Rattus norvegicus. In words: Drug metabolism in rat assessed as 2,3-dihydro-1H-benzo[e]pyrrolo[1,2-a][1,4]diazepine-5,11(10H,11aH)-dione formation. The series is classed as ADME, organism-based. Particulars: in vivo.
Where [10] appears, read: Rattus norvegicus, po, read-out: ED50.

Experimental findings from ChEMBL document CHEMBL3244263, “Derivatives of 1,2,3,11a-tetrahydro-5H-pyrrolo[2,1-c][1,4]benzodiazepine-5,11(10H)-dione as anxiolytic agents” (J Med Chem, 1978) are described below.

Each structure is given as a SMILES string. The source made the active and inactive calls. The calls are words filed in the database; no cut-off is given here. Some results are limits rather than exact numbers.

One may read the ED50 as the dose that gives a 50% effect, or the effect in half of the subjects. Consider `O=C1Nc2ccccc2C(=O)N2CCCC12` (single isomer, unassigned; (+)), for which the ED50 with Rattus norvegicus [1] (setting [10]) stood at 35 mg/kg.
In the case of `CN1C(=O)C2CCCN2C(=O)c2ccccc21` (single isomer, unassigned; (+)) [listing 1 of 2 here], the outcome in the series listed under Mus musculus, in the series listed under Rattus norvegicus [2], with Squirrel monkey and in the series filed under Canis familiaris was Active. The outcome in the series filed under Homo sapiens was inactive.
On to `CN1C(=O)CN=C(c2ccccc2)c2cc(Cl)ccc21` [DIAZEPAM], for which the Activity entry in the series listed under Rattus norvegicus [3] is on record as “Toxic”.
`CN1C(=O)C2(O)CCC(O)N2C(=O)c2ccccc21` (configuration not stated): the Drug metabolism entry in the series filed under Rattus norvegicus [4] was “metabolite_detected”.
Consider `CN1C(=O)C2CCCN2C(=O)c2cc(F)ccc21` (single isomer, unassigned; (+)), for which the ED50 in the series on Rattus norvegicus [1] (setting [10]) is 3.9 mg/kg.
Turning to `CN1C(=O)C2CCCN2C(=O)c2ccccc21` (stereo in doubt; 2), the ED50 with Rattus norvegicus [1] was found to be 20.2 mg/kg.
As to `CCCC(C)(COC(N)=O)COC(N)=O` [MEPROBAMATE], the median effective dose (ED50) in the series with Rattus norvegicus [1] (setting [10]) worked out at 21.5 mg/kg.
As to `CNC1=Nc2ccc(Cl)cc2C(c2ccccc2)=[N+]([O-])C1` [CHLORDIAZEPOXIDE], the Activity result in the series listed under Rattus norvegicus [3] is listed as “Toxic”. Besides, the ED50 in the series with Rattus norvegicus [1] (setting [10]) is 2.5 mg/kg.
For the compound `CN1C(=O)C2CCCN2C(=O)c2ccccc21` (single isomer, unassigned; (-)), in the series on Rattus norvegicus [1], the ED50 was more than 200 mg/kg.
Consider `O=C1Nc2ccc(F)cc2C(=O)N2CCCC12` (configuration not stated), for which the ED50 in the series on Rattus norvegicus [1] (setting [10]) was 23 mg/kg.
Take `CN1C(=O)C2CCCN2C(=O)c2ccccc21` (single isomer, unassigned; (+)) [listing 2 of 2 here]: the Drug metabolism entry in the series listed under Rattus norvegicus [5], in the series filed under Rattus norvegicus [6], in the series filed under Rattus norvegicus [7], in the series listed under Rattus norvegicus [8] and in the series filed under Rattus norvegicus [9] was “metabolite_detected” each time. In addition, the Activity result in the series filed under Rattus norvegicus [3] is “Non-toxic”. In addition, in the series with Rattus norvegicus [1], the ED50 came to 9.9 mg/kg.
